Consider three compounds from patent publication US20050136444A1 (priority 2003, published 2005).

“Also recorded” adds a separate entry of the source. Counter-ions that a name gives are not always drawn.

One assay concerns the target T1, NPFF2b (Homo sapiens, UniProt Q9Y5X5).
T1 construct: expressed in transfected cells; host or cells: HEK-T
The assay can be described thus: cAMP assay in transiently transfected HEK-T cells, NPFF2. The class given is cell-based. The note with it: for EC50: cAMP data, Table 2, HEK-T cells, read-out: NPFF2b pEC50 Mean (converted). How it is done:
An assay was established for measuring cAMP in transiently transfected cells that takes advantage of the fact that most cells that are transfected with one gene, can be simultaneously transfected with other genes. Thus, the NPFF1 and NPFF2 receptors were transfected along with a Gs-coupled receptor (EP2) at a ratio of 5:1.
This set up was routinely used for the transfection of HEK-T cells with NPFF1 and NPFF2 receptors. […] Cells were incubated for 15 minutes at 37° C. At the end of incubation, cells were lysed and the remainder of the assay performed as per DiscoveRx protocol.
Cells were incubated for another 15 minutes at 37° C. following which the cells were lysed and processed as per kit protocol.

The next assay has as its system Hot Plate Test. Nature of the assay: 52° C. hot plate test after systemic administration. The note with it: rats, 10 mg/kg i.p., vs vehicle. The class given is in vivo, rat. On the procedure: Rats were injected with either vehicle or 10 mg/kg Compound 2616 (i.p.) and then assessed for possible changes in sensitivity to a noxious thermal stimulus using the 52° C. hot plate test.

For assay [1], the system named is Compound 2616-induced Tactile Allodynia. Nature of the assay: Compound 2616-induced Tactile Allodynia in naive rats, effect of dPQR. The class given is in vivo, rat. Conditions: 10 mg/kg, i.p., 75 min post-injection, vs vehicle; Hydrochloride. How it is done: To confirm that the pronociceptive actions of Compound 2616 were mediated via NPFF1 receptors we performed a pharmacological experiment where we administered dPQR (Dansyl-Pro-Gln-Arg, a reported NPFF antagonist, custom synthesized by Phoenix Pharmaceuticals) to rats treated with Compound 2616. Baseline paw withdrawal thresholds were obtained in naive rats. Following testing, the rats received either vehicle or Compound 2616 (10 mg/kg, i.p.). […] Half of the rats that received Compound 2616 were then injected with either vehicle or dPQR (30 mg/kg, i.p.).

For assay [2], the system named is Carrageenan-induced Thermal Hyperalgesia. Nature of the assay: Carrageenan-induced Thermal Hyperalgesia (hot plate). The class given is in vivo, rat. The note with it: for hot plate latencies in vehicle-treated (no carrageenan) rats: 10 mg/kg; for calculated A50, reversal of thermal hyperalgesia: 95% CI; for reversal of carrageenan-induced thermal hyperalgesia: rats, 1, 3 and 10 mg/kg, hot plate. How it is done: Naive male Sprague-Dawley rats (175-200 g) were assessed for their responsiveness to a noxious thermal stimulus. Response latencies were measured using the hot plate test. Rats were placed in a plexiglass enclosure on a thermostatically controlled metal plate maintained at 52° C. […] Following testing, an animal model of acute inflammatory pain was created by injecting 100 μl of 2% λ-carrageenan ion to a hind paw. Three hours after carrageenan injection, hot plate latencies were again obtained. A significant reduction in the hot plate latency was interpreted as the presence of thermal hyperalgesia. Rats were injected with compound or vehicle and then tested at various time-points following drug administration. Data were converted to % Maximum Possible Effect (% MPE) by the formula, % MPE=((test-post-inflammatory)/(naive-post-inflammatory))*100, where the test score is the hot plate latency obtained after compound administration, the post-inflammatory score is the average response obtained 3 hr post-carrageenan, and the naive score is the average response obtained prior to manipulation. Additionally, paw thickness was measured (with a micrometer) following testing in order to quantify edema. Although none of the compounds tested reversed carrageenan-induced edema formation (data not shown), these compounds produced a dose-related reversal of carrageenan-induced thermal hyperalgesia.
Rats were injected (i.paw.) with 100 μl of 2% carrageenan or vehicle (dH2O) in order to produce a state of acute inflammatory pain. […] Rats were then treated with various doses of Compound 1045 (1, 3 and 10 mg/kg, i.p.) and hot plate latencies were tested across a period of 3 hours.
Rats were injected (i.paw.) with 100 μl of 2% carrageenan or vehicle (dH2O) in order to produce a state of acute inflammatory pain.
Rats were injected (i.paw.) with 100 μl of 2% carrageenan or vehicle (dH2O) in order to produce a state of acute inflammatory pain. […] Rats were then treated with various doses of Compound 3099 (1, 3 and 10 mg/kg, i.p.) and hot plate latencies were tested across a period of 3 hours.

Assay [3] has as its system 52° C. Water Tail Flick Test. Nature of the assay: 52° C. Water Tail Flick Test, intrathecal administration. The class given is in vivo, rat. The note with it: rats, morphine 3, 10, 30 μg, NPFF 100 μg, 1045 11.6 or 115.5 μg, 1DME 5.6, 55.6 or 556.0 μg. How it is done: Rats were implanted with chronically indwelling intrathecal catheters (PE-10; 7.5 cm) allowing for the delivery of compounds to the lumbar spinal cord. As a positive control, rats were treated with various doses of morphine (3, 10 and 30 μg).
Rats were implanted with chronically indwelling intrathecal catheters (PE-10; 7.5 cm) allowing for the delivery of compounds to the lumbar spinal cord.
Rats were implanted with chronically indwelling intrathecal catheters (PE-10; 7.5 cm) allowing for the delivery of compounds to the lumbar spinal cord. In order to rule out the possibility that the lack of antinociception produced by NPFF was due to the degradation of the peptide we administered 1DME (a stable NPFF analog).

In assay [4] the test system is formalin-induced flinching. The assay can be described thus: Formalin Flinching. The class given is in vivo, rat. Conditions: rats, 10 mg/kg i.p. 15 min prior to formalin. On the procedure: Naive male Sprague-Dawley rats (175-200 g) were injected with a test compound followed by an injection of 50 μl of a 5.0% formalin solution into the dorsal surface of a hind paw and then placed in individual plastic cages for observation. The number of nociceptive responses (i.e., paw flinches/licks/bites) was counted for a period of 60 min following formalin injection. […] Compounds were administered 15 min prior to formalin injection. The results are depicted in FIG. 4.
A model of tonic pain was created in rats by administering an injection of 5.0% formalin solution (50 μl) into the dorsal surface of a hind paw and then placing the rat in an individual plastic cage for observation. Paw flinches/licks/bites are counted for a period of 60 min. Rats received either vehicle or Compound 3099 (10 mg/kg, i.p.) 15 min prior to the formalin injection. […] This finding is consistent with our previous data.
A model of tonic pain was created in rats by administering an injection of 5.0% formalin solution (50 μl) into the dorsal surface of a hind paw and then placing the rat in an individual plastic cage for observation. Paw flinches/licks/bites are counted for a period of 60 min. […] This finding is consistent with our previous data.

T1 sequence (Q9Y5X5 103-522 limits assumed): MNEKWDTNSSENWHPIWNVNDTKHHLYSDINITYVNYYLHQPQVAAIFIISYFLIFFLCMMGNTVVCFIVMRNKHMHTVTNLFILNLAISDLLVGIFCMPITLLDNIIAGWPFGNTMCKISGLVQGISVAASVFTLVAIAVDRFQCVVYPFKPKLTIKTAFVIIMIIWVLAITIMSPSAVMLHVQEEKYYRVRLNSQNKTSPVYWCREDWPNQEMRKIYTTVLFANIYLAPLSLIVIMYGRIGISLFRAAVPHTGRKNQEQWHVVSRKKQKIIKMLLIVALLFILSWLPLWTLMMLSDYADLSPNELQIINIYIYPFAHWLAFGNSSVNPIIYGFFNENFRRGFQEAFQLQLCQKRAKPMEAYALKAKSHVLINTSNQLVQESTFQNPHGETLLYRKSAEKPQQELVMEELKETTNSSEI

Take `NC(N)=NN=Cc1ccc(-c2ccccc2C(F)(F)F)o1` (racemic) [Compound 2616, 1-[(5-(2-(Trifluoromethyl)phenyl)-furan-2-yl)-methyleneamino]guanidine Hydrochloride]: the Emax at NPFF2b (HEK-T cell, read-out: NPFF2b % Efficacy Mean) stood at 114%. Moreover, at NPFF2b, the EC50 was 3.16 µM. For the same compound, in the assay with Hot Plate Test, the “hot plate latency (thermal hyperalgesia)” value was “produced a significant reduction in the hot plate latency”. The “paw withdrawal thresholds / tactile sensitivity of naive rats” value in assay [1] is “markedly decreased; also recorded: resulted in an increased sensitivity to innocuous tactile stimulation”.
Consider `NC(N)=N/N=C/c1ccc(Cl)c(Cl)c1` [Compound 1045, 1-(3,4-Dichlorobenzylideneamino)guanidine Hydrochloride], for which the “hot plate latencies in vehicle-treated (no carrageenan) rats” value in assay [2] is “did not significantly alter sensitivity to noxious thermal stimulation”. Also, in assay [2] (carrageenan-treated rats, i.p.), the “maximum efficacy, reversal of thermal hyperalgesia” value was 57.6% and the “calculated A50, reversal of thermal hyperalgesia” value is given as 7.8 mg/kg. Besides, the “reversal of carrageenan-induced thermal hyperalgesia” value in assay [2] (i.p.) is reported as “dose-related reversal of thermal hyperalgesia”. In assay [2] (rats, paw thickness), the “carrageenan-induced edema formation in the hind paw” value was “did not significantly alter edema formation”. The “antinociception in 52° C. water tail flick test” value in assay [3] is recorded as “failed to elicit antinociception”.
Take `Cl.N=C(N)N/N=C/c1ccc(Br)c(Br)c1` [Compound 3093, 1-(3,4-Dibromobenzylideneamino)guanidine Hydrochloride]: in assay [4] (0-10 min post-formalin), the “formalin-induced flinching, phase I” value was “inactive”. For the same compound, in assay [4] (15-60 min post-formalin), the “inhibition of formalin-induced flinching, phase II” value is about 62.1 % inhibition. The EC50 on NPFF2b is 6.31 µM. In addition, the “hot plate latencies in vehicle-treated (no carrageenan) rats” value in assay [2] was “did not significantly alter the hot plate latencies”. Further, in assay [2] (carrageenan-treated rats, i.p.), the “time of peak effect after administration” value fell in the range of 30 to 60 min and the “calculated A50, reversal of thermal hyperalgesia” value was 1.6 mg. For the same compound, in assay [2] (i.p.), the “reversal of carrageenan-induced thermal hyperalgesia” value is recorded as “dose-related reversal of thermal hyperalgesia”.
